From patent publication US8633208B2, “6-1H-imidazo-quinazoline and quinolines derivatives, new MAO inhibitors and imidazoline receptor ligands” (Rottapharm S.p.A, priority 2008, dated 2014)
Structures can show the parent of a compound that is named as a salt. Where two headings read alike, the source gives them in different places.

Experiments:
I2 Imidazoline Receptor = experiment: Binding study towards I2 imidazoline receptor subtype in rat brain ([3H]2-BFI displacement); details: read-out: [3H]2-BFI binding IC50; rat whole brain membranes, [3H]-2BFI 2.5x10-9 M, 90 min at 25° C.
Experimental: Binding Study Towards I2 Imidazoline Receptor Subtype in Rat Brain.
Male Wistar rats (240-300 g, Harlan, Italy) were sacrificed by decapitation. Whole brains were immediately removed on ice and homogenised in 10 volumes of buffered sucrose (0.32M in 50 mM Tris-HCl, pH 7.4 at 4° C.) using a motor driven Teflon-glass homogeniser. The homogenate was centrifuged at 1000×g for 10 min at 4° C. The resultant supernatants were pooled and centrifuged at 32000×g for 20 min at 4° C. The supernatants were discarded and each pellet suspended in 10 volumes of assay buffer (50 mM Tris-HCl, 1 mM MgCl2, pH 7.4 at 4° C.) and spun at 32000×g for 20 min at 4° C. The pellets were washed twice by repeated centrifugation at 32000×g for 20 min at 4° C. The final pellets were stored at −80° C. until use. Prior to radioligand binding studies, membrane pellets were thawed and washed a further 4 times by re-suspension in 10 volumes of assay buffer (as above) and repeated centrifugation to remove any possible endogenous inhibitors of binding. […] Non specific binding was determined in the presence of 10^-5 M BU224 (Tocris Bioscience). The incubation, in a final volume of 1 ml, was performed in polystyrene multiwell 24, started adding membranes suspension and was carried out for 90 min at 25° C. With the exception of total binding and non specific binding, all concentration points were performed in duplicate. Compounds were tested in 3-5 different concentrations, ranging from 10^-10 M to 10^-5 M final concentration.

human recombinant MAO-A = human recombinant MAO-A (Homo sapiens (Human), UniProt P21397); experiment: Monoaminooxidase (MAO) activity assay, MAO-Glo luminescent method, MAO-A
Chain of human recombinant MAO-A (P21397 whole entry): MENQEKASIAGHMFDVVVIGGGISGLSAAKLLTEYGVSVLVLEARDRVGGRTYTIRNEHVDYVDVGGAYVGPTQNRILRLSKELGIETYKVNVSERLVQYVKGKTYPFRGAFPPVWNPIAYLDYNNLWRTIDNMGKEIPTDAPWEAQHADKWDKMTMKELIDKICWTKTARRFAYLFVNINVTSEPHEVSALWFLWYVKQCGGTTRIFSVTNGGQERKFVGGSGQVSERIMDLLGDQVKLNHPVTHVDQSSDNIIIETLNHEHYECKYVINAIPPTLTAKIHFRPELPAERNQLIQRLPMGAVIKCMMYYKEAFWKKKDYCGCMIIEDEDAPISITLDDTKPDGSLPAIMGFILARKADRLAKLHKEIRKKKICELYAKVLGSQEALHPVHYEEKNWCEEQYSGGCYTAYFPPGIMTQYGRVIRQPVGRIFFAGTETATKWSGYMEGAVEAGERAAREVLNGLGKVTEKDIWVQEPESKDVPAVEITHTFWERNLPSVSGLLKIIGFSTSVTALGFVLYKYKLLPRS
Experimental: Monoaminooxidase (MAO) Activity Assay.
(§1) Inhibitory activity of compounds was evaluated by a homogeneous luminescent method, the MAO-Glo™ Assay (Promega), measuring the monoamine oxidase activity (MAOs) from recombinant source (microsomes from baculovirus infected insect cells, Sigma). Experiments were performed according to the Supplier's procedure, incubating human recombinant MAO-A or MAO-B with a luminogenic substrate, a derivative of beetle luciferin ((4S)-4,5-dihydro-2-(6-hydroxybenzothiazolyl)-4-thiazolecarboxylic acid). […] The MAO-Glo™ Assay was performed in two steps:
(§2) Step 1. The MAO reaction: MAO substrate was incubated with MAO-A or MAO-B (1 μg/sample) in the absence (Total activity) or presence (modulated activity) of test compounds. Total activity was determined in the presence the appropriate solvent. […] Reaction started adding the enzyme solution and samples were incubated for 60 min at room temperature. For negative control reaction, samples of MAO reaction buffer (100 mM Hepes, 5% glycerol, pH 7.5) indeed the test compound were included. For MAO-B activity assay, MAO reaction buffer contain 10% DMSO, in order to increase enzymatic activity. Step 2. […] At the end of incubation 50 μl of Luciferin Detection reagent were added to each well, plate was incubated at room temperature for 20 min, then luminescent signal was detected by luminometer (integration time 0.25-1 sec per well). […] Net MAO-dependent luminescence (net RLU) were calculated by subtracting the average luminescence of the negative control reaction without MAO enzyme. A reduction of net signal in the presence of test compound, with respect to total activity, reflect its effect on MAOs activity. […] A percentage of inhibition for each concentration tested were calculated and the IC50 value was estimated by linear regression.

human recombinant MAO-B = human recombinant MAO-B (Homo sapiens (Human), UniProt P27338); experiment: Monoaminooxidase (MAO) activity assay, MAO-Glo luminescent method, MAO-B
Chain of human recombinant MAO-B (P27338 whole entry): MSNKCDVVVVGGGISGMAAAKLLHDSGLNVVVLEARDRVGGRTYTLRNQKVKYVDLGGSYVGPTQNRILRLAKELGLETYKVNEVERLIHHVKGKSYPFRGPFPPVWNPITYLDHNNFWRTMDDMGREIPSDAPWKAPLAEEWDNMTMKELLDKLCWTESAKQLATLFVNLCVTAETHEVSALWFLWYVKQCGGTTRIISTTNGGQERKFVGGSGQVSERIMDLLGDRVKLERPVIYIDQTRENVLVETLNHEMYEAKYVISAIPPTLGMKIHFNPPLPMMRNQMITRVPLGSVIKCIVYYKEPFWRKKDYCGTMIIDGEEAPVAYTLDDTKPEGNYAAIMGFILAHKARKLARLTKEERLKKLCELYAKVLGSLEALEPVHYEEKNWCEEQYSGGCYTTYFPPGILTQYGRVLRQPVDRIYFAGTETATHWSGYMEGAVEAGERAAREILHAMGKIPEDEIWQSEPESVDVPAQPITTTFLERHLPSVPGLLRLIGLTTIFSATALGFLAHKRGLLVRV
Experimental: Monoaminooxidase (MAO) Activity Assay.
as §1, §2

CD1 Mice = experiment: Tail suspension test in mice; format: in vivo; details: Table 3; for MPE (% inhibition in immobility time): 30 min before the test
Experimental: Tail Suspension Test in Mice
To evaluate novel antidepressants compounds several animal models have been developed. […] The antidepressant effect of representative examples of compounds of formula (I) has been evaluated according to the procedure below. The immobility was induced according to the procedure of Stem et al. (1985). CD1 Mice (Harlan, Italy) were individually suspended 75 cm above the top with an adhesive tape placed 1 cm from the tip of the tail. Immobility duration was recorded for 5 min. Mice were considered immobile only when they hung passively and completely motionless. Compounds were given orally, 30 min before the test at doses ranging between 0.3 and 30 mg/kg. Data collected were expressed as mean percent effect (MPE), which represents the % of inhibition in immobility time between the animals treated with representative compounds of formula (I) and the controls that received only the vehicle.

[1] = read-out: MAO A activity IC50, human recombinant MAO-A, substrate 40 μM, 60 min room temperature

| SMILES | melting point | IC50 (I2 Imidazoline Receptor) [nM] | further results |
| --- | --- | --- | --- |
| COc1ccc(-c2ncc3cc(-n4ccnc4C)ccc3n2)cc1 (as salt: hydrochloride) [Example 3, [6-(2-methyl-1H-imidazol-1-yl)-2-(4-methoxyphenyl)]quinazoline] | 198.3 to 200.3 °C | – | – |
| Cc1cncn1-c1ccc2nc(-c3ccccc3)ncc2c1 (as salt: hydrochloride) [Example 5, [6-(5-methyl-1H-imidazol-1-yl)-2-phenyl]quinazoline] | 138.5 to 139.1 °C | – | – |
| COc1ccc(-c2ncc3cc(-n4cnc(C)c4)ccc3n2)cc1 (as salt: hydrochloride) [Example 6, [6-(4-methyl-1H-imidazol-1-yl)-2-(4-methoxyphenyl)]quinazoline] | 201 to 202 °C | – | – |
| Cc1cn(-c2ccc3nc(-c4ccc5c(c4)OCO5)ncc3c2)cn1 (as salt: hydrochloride) [Example 9, [6-(4-methyl-1H-imidazol-1-yl)-2-(1,3-benzodioxol-5-yl)]quinazoline] | 215.3 to 218.7 °C | – | – |
| Cc1cn(-c2ccc3nc(-c4ccc(S(C)(=O)=O)cc4)ncc3c2)cn1 (as salt: hydrochloride) [Example 11, [6-(4-methyl-1H-imidazol-1-yl)-2-(4-methanesulfonylphenyl)]quinazoline] | 276.4 to 281.7 °C | – | – |
| COc1ccc(-c2ccc3cc(-n4ccnc4)ccc3n2)cc1 (as salt: hydrochloride) [Example 18, [6-(1H-imidazol-1-yl)-2-(4-methoxyphenyl)]quinoline dihydrochloride] | 266 to 267 °C | – | – |
| COc1ccccc1-c1ccc2cc(-n3ccnc3)ccc2n1 (as salt: hydrochloride) [Example 19, [6-(1H-imidazol-1-yl)-2-(2-methoxyphenyl)]quinoline dihydrochloride] | 251.5 to 252 °C | – | – |
| c1cn(-c2ccc3nc(-c4ccoc4)ccc3c2)cn1 (as salt: hydrochloride) [Example 20, [6-(1H-imidazol-1-yl)-2-(3-furyl)]quinoline dihydrochloride] | 293.1 to 295.6 °C | – | – |
| Fc1ccc(-c2ccc3cc(-n4ccnc4)ccc3n2)cc1 (as salt: hydrochloride) [Example 21, [6-(1H-imidazol-1-yl)-2-(4-fluorophenyl)]quinoline dihydrochloride] | 280.7 to 282 °C | – | – |
| CN(C)c1ccc(-c2ccc3cc(-n4ccnc4)ccc3n2)cc1 (as salt: hydrochloride) [Example 22, [6-(1H-imidazol-1-yl)-2-(4-dimethylaminophenyl)]quinoline trihydrochloride] | 284 to 286 °C | – | – |
| FC(F)(F)Oc1ccc(-c2ccc3cc(-n4ccnc4)ccc3n2)cc1 (as salt: hydrochloride) [Example 23, [6-(1H-imidazol-1-yl)-2-(4-trifluoromethoxyphenyl)]quinoline dihydrochloride] | 260 to 262 °C | – | – |
| Cc1cc(OC(F)(F)F)ccc1-c1ccc2cc(-n3ccnc3)ccc2n1 (as salt: hydrochloride) [Example 24, [6-(1H-imidazol-1-yl)-2-(2-methyl-4-trifluoromethoxyphenyl)]quinoline dihydrochloride] | 269.7 to 274.5 °C | – | – |
| COc1ccc(-c2ccc3cc(-n4ccnc4C)ccc3n2)cc1 (as salt: hydrochloride) [Example 26, [6-(2-methyl-1H-imidazol-1-yl)-2-(4-methoxyphenyl)]quinoline dihydrochloride] | 230 °C (dec.) | – | – |
| COc1ccccc1-c1ccc2cc(-n3ccnc3C)ccc2n1 (as salt: hydrochloride) [Example 27, [6-(2-methyl-1H-imidazol-1-yl)-2-(2-methoxyphenyl)]quinoline dihydrochloride] | 235 °C (dec.) | – | – |
| Cc1nccn1-c1ccc2nc(-c3ccoc3)ccc2c1 (as salt: hydrochloride) [Example 28, [6-(2-methyl-1H imidazol-1-yl)-2-(3-furyl)]quinoline dihydrochloride] | 240.1 to 243.2 °C | – | – |
| Cc1nccn1-c1ccc2nc(-c3ccccc3)ccc2c1 (as salt: hydrochloride) [Example 29, [6-(2-methyl-1H imidazol-1-yl)-2-(phenyl)]quinoline dihydrochloride] | 296 to 297 °C | – | – |
| COc1ccc(-c2ccc3cc(-n4cnc(C)c4)ccc3n2)cc1 (as salt: hydrochloride) [Example 31, [6-(4-methyl-1H-imidazol-1-yl)-2-(4-methoxyphenyl)]quinoline dihydrochloride] | 276 to 278 °C (dec.) | – | – |

| SMILES | melting point | IC50 (I2 Imidazoline Receptor) [nM] | further results |
| --- | --- | --- | --- |
| Cc1cn(-c2ccc3nc(-c4ccc(F)cc4)ccc3c2)cn1 (as salt: hydrochloride) [Example 32, [6-(4-methyl-1H-imidazol-1-yl)-2-(4-fluorophenyl)]quinoline dihydrochloride] | 264 to 268 °C | – | – |
| CSc1ccc(-c2ccc3cc(-n4cnc(C)c4)ccc3n2)cc1 (as salt: hydrochloride) [Example 33, [6-(4-methyl-1H-imidazol-1-yl)-2-(4-methylthiophenyl)]quinoline dihydrochloride] | 294 to 296 °C | – | – |
| N=C(N)NCCCCN [Agmatine, reference compound] | – | > 10000 | IC50 (human recombinant MAO-A): > 100 µM; IC50 (human recombinant MAO-B): > 100 µM |
| C#CCN(C)CCCOc1ccc(Cl)cc1Cl [Clorgyline, reference compound] | – | 1530 | – |
| C#CCN(C)[C@H](C)Cc1ccccc1 [Deprenyl, reference compound] | – | 2310 | – |
| c1ccc2oc(C3=NCCN3)cc2c1 [Example 2-BFI, 2-benzofuranylimidazoline, reference compound] | – | 7 | IC50 (human recombinant MAO-A; [1]): > 1 µM |
| COc1ccc(-c2ncc3cc(-n4cnc(C)c4)ccc3n2)cc1 [Example 6, [6-(4-methyl-1H-imidazol-1-yl)-2-(4-methoxyphenyl)]quinazoline] | – | 1160 | IC50 (human recombinant MAO-A): > 10 µM; IC50 (human recombinant MAO-B): > 10 µM |
| COc1cccc(-c2ncc3cc(-n4cnc(C)c4)ccc3n2)c1 [Example 8, [6-(4-methyl-1H-imidazol-1-yl)-2-(3-methoxyphenyl)]quinazoline] | 294 to 296 °C | – | – |
| Cc1cn(-c2ccc3nc(-c4ccc5c(c4)OCO5)ncc3c2)cn1 [Example 9, [6-(4-methyl-1H-imidazol-1-yl)-2-(1,3-benzodioxol-5-yl)]quinazoline] | – | 1040 | IC50 (human recombinant MAO-A): > 10 µM; IC50 (human recombinant MAO-B): > 10 µM |
| Cc1cn(-c2ccc3nc(-c4ccoc4)ncc3c2)cn1 [Example 12, [6-(4-methyl-1H-imidazol-1-yl)-2-(3-furyl)]quinazoline] | 160.5 to 163.2 °C | – | – |
| c1cn(-c2ccc3nc(-c4ccc5c(c4)OCO5)ncc3c2)cn1 [Example 13, [6-(1H-imidazol-1-yl)-2-(1,3-benzodioxol-5-yl)]quinazoline] | – | 1340 | IC50 (human recombinant MAO-A; [1]): 10 µM; IC50 (human recombinant MAO-B): > 10 µM |
| c1cn(-c2ccc3nc(-c4ccc5occc5c4)ncc3c2)cn1 [Example 14, [6-(1H-imidazol-1-yl)-2-(benzofuran-5-yl)-]quinazoline dihydrochloride trihydrate] | – | 610 | IC50 (human recombinant MAO-A; [1]): 0.35 µM; IC50 (human recombinant MAO-B): > 10 µM |
| c1cn(-c2ccc3nc(-c4ccc5c(c4)OCCO5)ncc3c2)cn1 [Example 15, [6-(1H-imidazol-1-yl)-2-(2,3-dihydro-1,4-benzodioxin-6-yl)]quinazoline] | – | 500 | IC50 (human recombinant MAO-A): > 10 µM; IC50 (human recombinant MAO-B): > 10 µM |
| c1ccc(-c2ccc3cc(-n4ccnc4)ccc3n2)cc1 [Example 17] | – | 420 | IC50 (human recombinant MAO-B; read-out: MAO B activity IC50): 10 µM |
| COc1ccc(-c2ccc3cc(-n4ccnc4)ccc3n2)cc1 [Example 18, [6-(1H-imidazol-1-yl)-2-(4-methoxyphenyl)]quinoline dihydrochloride] | – | 1900 | IC50 (human recombinant MAO-A; [1]): 0.67 µM; IC50 (human recombinant MAO-B): > 10 µM |
| CS(=O)(=O)c1ccc(-c2ccc3cc(-n4ccnc4)ccc3n2)cc1 [Example 25, [6-(1H-imidazol-1-yl)-2-(4-methanesulfonylphenyl)]quinoline dihydrochloride] | – | – | MPE (% inhibition in immobility time) (CD1 Mice; dose 3 mg/Kg OS): 23%; MPE (% inhibition in immobility time) (CD1 Mice; dose 10 mg/Kg OS): 54%; MPE (% inhibition in immobility time) (CD1 Mice; dose 30 mg/Kg OS): 40%; ED50 (CD1 Mice; dose yielding 50% reduction of immobility, oral): 8.7 mg/Kg; OS; IC50 (human recombinant MAO-B): > 10 µM |
